According to patent US20030207792A1, “Treating cancer” (priority 2002, published 2003):
Read-outs that look alike come from different tables or passages of the source.

Assays:
Format in all cases: cell-based
HCT116 cells [1] = experiment: TUNEL assay (ApopTag) for apoptosis 48 h after transfection
Description: (§1) Sense and antisense phosphorothionate oligonucleotide with the sequence set out in SEQ1 and SEQ2 respectively were synthesised in a 380B DNA synthesiser. Each oligonucleotide was premixed with lipofectin reagent and diluted in DMEM (Gibco). 6 cm plates of HCT116 cells at 40-50% confluence were rinsed once with 4 ml serum free DMEM and transfected with the oligonucleotides at a final concentration of 1 μM and the lipofectin reagent at a final concentration of 19 μg/ml according to the manufacturer's instructions (Life Technologies Inc., Gaithersburg, Md.). After 4 hours, Foetal Calf Serum (Gibco) was added to a final concentration of 10%. A lipofectin only transfection was performed as a control. Cell extracts were harvested after 48 h and examined by Western blot analysis with a pRb antibody. Equal loading of protein samples was confirmed by Coomassie blue staining or by immunoreactivity with an anti-actin antibody (Sigma). The intensities of the Rb bands were quantised with an image scanner (Molecular Dynamics). […] The treatment with the sense oligonucleotide led to about a 5% reduction in the level of pRb. […] Apoptosis in the cultures 48 h after transfection was tested for using the TUNEL assay. An in situ apoptosis detection kit ApopTag (Oncor, Gaithersburg, Md.) was used as recommended by the manufacturer. The percentage of TUNEL positive cells was 1.5+/−1% for the lipofectin treated culture, 3+/−0.5% for the culture transfected with the sense oligonucleotide and 18+/−0.5% for the culture transfected with the antisense oligonucleotide. Thus, the sense oligonucleotide caused about a two-fold increase in apoptosis, but the antisense oligonucleotide caused over a 10-fold increase in apoptosis. As the antisense oligonucleotide inhibits growth and increases apoptosis, it is thus an effective chemotherapeutic agent.

HCT116 cells [2] = experiment: Growth curves of transfected HCT116 cultures; conditions: oligonucleotide 1 μM with lipofectin
Description: as §1, with “The percentage of TUNEL positive cells was 1.5+/−1% for the lipofectin treated culture, 3+/−0.5% for the culture transfected with the sense oligonucleotide and 18+/−0.5% for the culture transfected with the antisense oligonucleotide. Thus, the sense oligonucleotide caused about a two-fold increase in apoptosis, but the antisense oligonucleotide caused over a 10-fold increase in apoptosis. As the antisense oligonucleotide inhibits growth and increases apoptosis, it is thus an effective chemotherapeutic agent.” left out

pRb = experiment: Western blot analysis of pRb level in HCT116 cells 48 h after oligonucleotide transfection; conditions: oligonucleotide 1 μM with lipofectin 19 μg/ml, extracts after 48 h, Western blot band intensity
Description: as §1, with “The percentage of TUNEL positive cells was 1.5+/−1% for the lipofectin treated culture, 3+/−0.5% for the culture transfected with the sense oligonucleotide and 18+/−0.5% for the culture transfected with the antisense oligonucleotide. Thus, the sense oligonucleotide caused about a two-fold increase in apoptosis, but the antisense oligonucleotide caused over a 10-fold increase in apoptosis. As the antisense oligonucleotide inhibits growth and increases apoptosis, it is thus an effective chemotherapeutic agent.” left out

Substance	percentage of TUNEL positive cells (HCT116 cells [1]; HCT116 cells, 48 h after transfection, oligonucleotide 1 μM)	fold increase in apoptosis (HCT116 cells [1]; HCT116 cells, 48 h after transfection, versus lipofectin treated culture) [fold]	effect on growth (growth curves) compared with the lipofectin-treated control culture (HCT116 cells [2])	level of pRb expression relative to the control culture treated only with lipofectin (pRb)	fold increase in apoptosis (HCT116 cells [1])
5′-GGTTTTGGGCGGCATGAC-3′ (DNA, all phosphorothioate, methylation of C not given here) [antisense oligonucleotide]	18+/−0.5%	> 10	displayed growth inhibition	about 30%	
5′-GTCATGCCGCCCAAAACC-3′ (phosphorothioate, further chemistry not given here) [sense oligonucleotide, reference compound]					two-fold
